Experimental data reported in patent publication US20060128738A1, “Treatment of interstitial cystitis using cannabinoid analogs” (Indevus Pharmaceuticals, Inc., priority 2004, published 2006).

System: cyclophosphamide-induced bladder overactivity
Test: Subacute bladder irritation by cyclophosphamide, cystometrograms, i.v. administration
Type: in vivo
Details: CYP-treated rats, after administration
Protocol: Cystometrograms (CMGs) are performed under urethane anesthesia (1 g/kg s.c.) using a catheter inserted into the bladder through the bladder dome via a midline abdominal incision. Saline is infused at a rate of 0.04 ml/min to elicit repetitive bladder contractions. Effects of intravenous (i.v.) injection of cannabinoid analogs and analogs of (6aR,10aR)-Δ^8-Tetrahydrocannabinol-11-oic Acids on bladder overactivity induced by either intravesical administration of acetic acid solution or one day treatment with cyclophosphamide are investigated. […] Thus, these Compound analogs can be effective for the treatment of pain and urinary frequency symptoms in patients with painful bladder syndrome/interstitial cystitis.
One day after intraperitoneal injection of cyclophosphamide (CYP, 150 mg/kg), control CMGs are recorded for 1 to 2 hour prior to i.v. administration of Compound analog or vehicle. See, example i, above. Following administration of Compound analog, changes in cystometric parameters such as ICIs, MVP, PT and BP are recorded to evaluate the effects of Compound analog on cyclophosphamide-induced bladder overactivity.

CCCCCCC(C)(C)c1cc(O)c2c(c1)OC(C)(C)[C@@H]1CC=C(C(=O)O)C[C@@H]21 [IP-751]
No significant changes: change in baseline pressure (BP) | change in maximum voiding pressure (MVP) | change in pressure threshold (PT)
